Assay results: ChEMBL document CHEMBL6134788, “Development of naphthalimide hydrazide derivatives as potent antibacterial agents against carbapenem-resistant A. baumannii” (RSC Med Chem, 2024)
≈ marks a conversion by molar mass, not a printed value.

What was measured:
[1] = system: Acinetobacter baumannii; assay: Antibacterial activity against Acinetobacter baumannii ATCC 17978 assessed as inhibition of bacterial growth incubated for 16 to 18 hrs by CLSI protocol based method; assay type: functional; details: time 16-18 hrs, read-out: MIC100
[2] = system: Acinetobacter baumannii; assay: Antibacterial activity against multi-drug resistant Acinetobacter baumannii clinical isolate 3 assessed as inhibition of bacterial growth incubated for 16 to 18 hrs by CLSI protocol based method; assay type: functional; details: time 16-18 hrs, read-out: MIC100
[3] = system: Acinetobacter baumannii; assay: Antibacterial activity against multi-drug resistant Acinetobacter baumannii clinical isolate 8 assessed as inhibition of bacterial growth incubated for 16 to 18 hrs by CLSI protocol based method; assay type: functional; details: time 16-18 hrs, read-out: MIC100
[4] = system: Acinetobacter baumannii; assay: Antibacterial activity against multi-drug resistant Acinetobacter baumannii BC-5 assessed as inhibition of bacterial growth incubated for 16 to 18 hrs by CLSI protocol based method; assay type: functional; details: time 16-18 hrs, read-out: MIC100
[5] = system: Acinetobacter baumannii; assay: Antibacterial activity against multi-drug resistant Acinetobacter baumannii 5-109 assessed as inhibition of bacterial growth incubated for 16 to 18 hrs by CLSI protocol based method; assay type: functional; details: time 16-18 hrs, read-out: MIC100
[6] = system: Acinetobacter baumannii; assay: Antibacterial activity against multi-drug resistant Acinetobacter baumannii H72721 assessed as inhibition of bacterial growth incubated for 16 to 18 hrs by CLSI protocol based method; assay type: functional; details: time 16-18 hrs, read-out: MIC100
[7] = system: Acinetobacter baumannii; assay: Antibacterial activity against multi-drug resistant Acinetobacter baumannii Naval-81 assessed as inhibition of bacterial growth incubated for 16 to 18 hrs by CLSI protocol based method; assay type: functional; details: time 16-18 hrs, read-out: MIC100
[8] = system: Acinetobacter baumannii; assay: Antibacterial activity against multi-drug resistant Acinetobacter baumannii clinical isolate 12 assessed as inhibition of bacterial growth incubated for 16 to 18 hrs by CLSI protocol based method; assay type: functional; details: time 16-18 hrs, read-out: MIC100
[9] = system: Acinetobacter baumannii; assay: Antibacterial activity against multi-drug resistant Acinetobacter baumannii clinical isolate 10 assessed as inhibition of bacterial growth incubated for 16 to 18 hrs by CLSI protocol based method; assay type: functional; details: time 16-18 hrs, read-out: MIC100
[10] = system: Acinetobacter baumannii; assay: Antibacterial activity against multi-drug resistant Acinetobacter baumannii 5-032 assessed as inhibition of bacterial growth incubated for 16 to 18 hrs by CLSI protocol based method; assay type: functional; details: time 16-18 hrs, read-out: MIC100
[11] = system: Klebsiella pneumoniae; assay: Antibacterial activity against Klebsiella pneumoniae BAA 1705 assessed as inhibition of bacterial growth incubated for 16 to 18 hrs by CLSI protocol based method; assay type: functional; details: time 16-18 hrs, read-out: MIC100
[12] = system: Acinetobacter baumannii; assay: Antibacterial activity against multi-drug resistant Acinetobacter baumannii Naval-18 assessed as inhibition of bacterial growth incubated for 16 to 18 hrs by CLSI protocol based method; assay type: functional; details: time 16-18 hrs, read-out: MIC100
[13] = system: Acinetobacter baumannii; assay: Antibacterial activity against multi-drug resistant Acinetobacter baumannii 5-189 assessed as inhibition of bacterial growth incubated for 16 to 18 hrs by CLSI protocol based method; assay type: functional; details: time 16-18 hrs, read-out: MIC100
[14] = system: Acinetobacter baumannii; assay: Antibacterial activity against multi-drug resistant Acinetobacter baumannii Naval-17 assessed as inhibition of bacterial growth incubated for 16 to 18 hrs by CLSI protocol based method; assay type: functional; details: time 16-18 hrs, read-out: MIC100
[15] = system: Acinetobacter baumannii; assay: Antibacterial activity against carbapenem-resistant Acinetobacter baumannii BAA 1605 assessed as inhibition of bacterial growth incubated for 16 to 18 hrs by CLSI protocol based method; assay type: functional; details: time 16-18 hrs, read-out: MIC100
[16] = system: Acinetobacter baumannii; assay: Antibacterial activity against multi-drug resistant Acinetobacter baumannii clinical isolate 1 assessed as inhibition of bacterial growth incubated for 16 to 18 hrs by CLSI protocol based method; assay type: functional; details: time 16-18 hrs, read-out: MIC100
[17] = system: Acinetobacter baumannii; assay: Antibacterial activity against multi-drug resistant Acinetobacter baumannii clinical isolate 2 assessed as inhibition of bacterial growth incubated for 16 to 18 hrs by CLSI protocol based method; assay type: functional; details: time 16-18 hrs, read-out: MIC100
[18] = system: Acinetobacter baumannii; assay: Antibacterial activity against multi-drug resistant Acinetobacter baumannii clinical isolate 11 assessed as inhibition of bacterial growth incubated for 16 to 18 hrs by CLSI protocol based method; assay type: functional; details: time 16-18 hrs, read-out: MIC100
[19] = system: Staphylococcus aureus; assay: Antibacterial activity against Staphylococcus aureus ATCC 29213 assessed as inhibition of bacterial growth incubated for 16 to 18 hrs by CLSI protocol based method; assay type: functional; details: time 16-18 hrs, read-out: MIC100
[20] = system: Acinetobacter baumannii; assay: Antibacterial activity against multi-drug resistant Acinetobacter baumannii clinical isolate 6 assessed as inhibition of bacterial growth incubated for 16 to 18 hrs by CLSI protocol based method; assay type: functional; details: time 16-18 hrs, read-out: MIC100
[21] = system: Acinetobacter baumannii; assay: Antibacterial activity against multi-drug resistant Acinetobacter baumannii clinical isolate 5 assessed as inhibition of bacterial growth incubated for 16 to 18 hrs by CLSI protocol based method; assay type: functional; details: time 16-18 hrs, read-out: MIC100
[22] = system: Acinetobacter baumannii; assay: Antibacterial activity against multi-drug resistant Acinetobacter baumannii 5-143 assessed as inhibition of bacterial growth incubated for 16 to 18 hrs by CLSI protocol based method; assay type: functional; details: time 16-18 hrs, read-out: MIC100
[23] = system: Acinetobacter baumannii; assay: Antibacterial activity against multi-drug resistant Acinetobacter baumannii NR-17777 assessed as inhibition of bacterial growth incubated for 16 to 18 hrs by CLSI protocol based method; assay type: functional; details: time 16-18 hrs, read-out: MIC100
[24] = system: Acinetobacter baumannii; assay: Antibacterial activity against multi-drug resistant Acinetobacter baumannii WL-487 assessed as inhibition of bacterial growth incubated for 16 to 18 hrs by CLSI protocol based method; assay type: functional; details: time 16-18 hrs, read-out: MIC100
[25] = system: Escherichia coli; assay: Antibacterial activity against Escherichia coli ATCC 25922 assessed as inhibition of bacterial growth incubated for 16 to 18 hrs by CLSI protocol based method; assay type: functional; details: time 16-18 hrs, read-out: MIC100
[26] = Cytotoxicity against African green monkey Vero cells assessed as reduction in cell viability incubated for 72 hrs by MTT assay; assay type: toxicity, cell-based; details: chlorocebus sabaeus
[27] = system: Acinetobacter baumannii; assay: Antibacterial activity against multi-drug resistant Acinetobacter baumannii clinical isolate 4 assessed as inhibition of bacterial growth incubated for 16 to 18 hrs by CLSI protocol based method; assay type: functional; details: time 16-18 hrs, read-out: MIC100
[28] = system: Acinetobacter baumannii; assay: Antibacterial activity against multi-drug resistant Acinetobacter baumannii clinical isolate 7 assessed as inhibition of bacterial growth incubated for 16 to 18 hrs by CLSI protocol based method; assay type: functional; details: time 16-18 hrs, read-out: MIC100
[29] = system: Acinetobacter baumannii; assay: Antibacterial activity against multi-drug resistant Acinetobacter baumannii clinical isolate 9 assessed as inhibition of bacterial growth incubated for 16 to 18 hrs by CLSI protocol based method; assay type: functional; details: time 16-18 hrs, read-out: MIC100
[30] = system: Acinetobacter baumannii; assay: Antibacterial activity against multi-drug resistant Acinetobacter baumannii WL-136 assessed as inhibition of bacterial growth incubated for 16 to 18 hrs by CLSI protocol based method; assay type: functional; details: time 16-18 hrs, read-out: MIC100
[31] = Selectivity index, ratio of CC50 for cytotoxicity against African green monkey VERO cells to MIC for antibacterial activity against carbapenem-resistant Acinetobacter baumannii BAA 1605 assessed as inhibition of bacterial growth; assay type: toxicity, cell-based; details: read-out: Selectivity Index
[32] = system: Pseudomonas aeruginosa; assay: Antibacterial activity against Pseudomonas aeruginosa ATCC 27853 assessed as inhibition of bacterial growth incubated for 16 to 18 hrs by CLSI protocol based method; assay type: functional; details: time 16-18 hrs, read-out: MIC100

Row | Structure (SMILES) | MIC [1] [µg/mL] | MIC [2] [µg/mL] | MIC [3] [µg/mL] | MIC [8] [µg/mL] | MIC [9] [µg/mL] | MIC [10] [µg/mL] | MIC [12] [µg/mL] | MIC [14] [µg/mL] | MIC [15] [µg/mL] | MIC [16] [µg/mL] | MIC [17] [µg/mL] | MIC [18] [µg/mL] | MIC [19] [µg/mL] | MIC [20] [µg/mL] | MIC [22] [µg/mL] | MIC [24] [µg/mL] | CC50 at 72 h [26] [µg/mL] | MIC [27] [µg/mL] | MIC [29] [µg/mL] | MIC [30] [µg/mL] | also measured
1 | N#Cc1ccc(NNC(=O)CCN2C(=O)c3cccc4cccc(c34)C2=O)cc1 | 2 (≈ 5.2 µM) | 1 (≈ 2.6 µM) | 2 (≈ 5.2 µM) | 2 (≈ 5.2 µM) | 8 (≈ 20.8 µM) | 2 (≈ 5.2 µM) | 2 (≈ 5.2 µM) | 2 (≈ 5.2 µM) | 0.5 (≈ 1.3 µM) | 1 (≈ 2.6 µM) | 2 (≈ 5.2 µM) | 2 (≈ 5.2 µM) | > 64 | 4 (≈ 10.4 µM) | 1 (≈ 2.6 µM) | 4 (≈ 10.4 µM) | > 100 | 2 (≈ 5.2 µM) | 2 (≈ 5.2 µM) | 2 (≈ 5.2 µM) | MIC [4]: 2 µg/mL (≈ 5.2 µM); MIC [5]: 2 µg/mL (≈ 5.2 µM); MIC [6]: 2 µg/mL (≈ 5.2 µM); MIC [7]: 2 µg/mL (≈ 5.2 µM); MIC [11]: > 64 µg/mL; MIC [13]: 4 µg/mL (≈ 10.4 µM); MIC [21]: 4 µg/mL (≈ 10.4 µM); MIC [23]: 2 µg/mL (≈ 5.2 µM); MIC [25]: > 64 µg/mL; MIC [28]: 1 µg/mL (≈ 2.6 µM); selectivity ratio [31]: > 200; MIC [32]: > 64 µg/mL
2 | C[C@H]1COc2c(N3CCN(C)CC3)c(F)cc3c(=O)c(C(=O)O)cn1c23 [LEVOFLOXACIN ANHYDROUS] | 0.03 (≈ 0.083 µM) | 64 (≈ 177 µM) | 4 (≈ 11.1 µM) | 4 (≈ 11.1 µM) | > 64 | 0.25 (≈ 0.692 µM) | 4 (≈ 11.1 µM) | 16 (≈ 44.3 µM) | 4 (≈ 11.1 µM) | 32 (≈ 88.6 µM) | > 64 | 64 (≈ 177 µM) | 0.25 (≈ 0.692 µM) | 4 (≈ 11.1 µM) | 1 (≈ 2.77 µM) | 0.125 (≈ 0.346 µM) | > 400 | > 64 | 4 (≈ 11.1 µM) | 0.25 (≈ 0.692 µM) | –
